Source: patent US5324739A (priority 1993, dated 1994)

Experiments:
MRC-5 cells = test: cytotoxicity / antiproliferative assay on dividing and confluent MRC-5 cells (MTT); type: cell-based, human; conditions: proliferating vs quiescent cells
Procedure: Evaluation of the antiproliferative activity of fractions using MRC-5 cells in culture was performed using the following procedure: Human embryonic lung (MRC-5) cells were obtained from the American Type Culture Collection. The cells were grown in Eagle's Minimum Essential Medium with Earle's salts (EMEM, JRH Bioscience) supplemented with 10% fetal calf serum (Hyclone), 0.75 mg/mL NaHCO3, 100 units of penicillin per mL, and 100 μg streptomycin per mL (Gibco Labs). As in the AB1 cell assay, cell growth and survival was determined calorimetrically, based upon the uptake and reduction of the tetrazolium salt, MTT, to a blue-colored formazan product by mitochondrial enzymes of living cells. The effect of the fractions, as potential inhibitors at different stages of the cell cycle, was determined by performing the assay using both resting and rapidly dividing cells. […] At the end of the incubation, the medium was aspirated, the cells were rinsed once using PBS, and 1.0 mg/mL of MTT was added to each well. The plates were incubated with MTT for three hours, after which the MTT was aspirated and isopropanol was added to dissolve any formazen crystals that formed. Plates were "read" on an Elisa reader at 570 nm (principal wavelength) and again at 650 wavelength (reference wavelength) to correct for non-specific background absorbance, using a Thermomax Spectrophotometer (Molecular Devices). […]

[1] = tested on: 60 different human tumor cell lines; conditions: for cytotoxicity: cancer cell lines
Procedure: In these examples, an extract of Lyngbya majuscula containing Curacins A and B was subjected to the drug screening procedure employed by the National Cancer Institute for the screening of drugs having possible anticancer utility.
The screening procedure employed a diverse, disease-oriented panel consisting of 60 different human tumor cell lines organized into seven disease-specific subpanels. The extract was tested over a wide range of concentrations for cytotoxic or growth-inhibitory effects against each cell line comprising the panel. The seven subpanels represented diverse histologies (leukemias, melanomas, and tumors of the lung, colon, kidney, ovary, and brain).
The extract was tested over two days in which the cells were continuously exposed to five log10 -spaced concentrations of the drug starting at 10^-4 μg/mL. The tests produced 60 individual dose-response curves, one for each cell line (i.e., one for each example).
To produce data for the mean-graph format shown in FIG. 7, a concentration of the extract that produced a target level response was calculated for each cell line. Three different response parameters were evaluated. The first response parameter was the "GI50," which is the concentration of the extract that produced an apparent 50% decrease in the number of tumor cells relative to the appropriate control (not exposed to extract) at the end of the incubation period. The second response parameter was the "TGI," which is the concentration at which the number of tumor cells remaining at the end of the incubation period substantially equaled the number of tumor cells existing at the start of the incubation period. The third response parameter was the "LC50," which is the concentration of extract that caused an apparent 50 percent reduction in the number of tumor cells relative to the appropriate control (not exposed to extract) at the start of the incubation period.
In a typical GI50 mean graph (e.g., left graph of FIG. 7), the relative position of the vertical reference line along the horizontal concentration axis is obtained by averaging the negative log10 GI50 values for all the cell lines tested against the extract. Horizontal bars are then plotted for the individual negative log10 GI50 values of each cell line relative to the vertical reference line. […] The length of a bar is proportional to the difference between the log10 GI50 value obtained with the particular cell line and the mean (represented by the vertical reference line).
COMPARE is used to rank the similarity of the mean graph profile of the sample extract or drug to the patterns of all the other compounds in the NCI screening database or a defined subset thereof.

spleen lymphocytes = test: ex vivo experiments on spleen lymphocytes after administration to mice; conditions: 1-10 mg/kg
brine shrimp = type: in vivo; conditions: see Example 1
Procedure: In this Example, various concentrations of the organic extract of Lyngbya majuscula were tested using a brine-shrimp assay. The assay was performed according to the following procedure: 24 hours before performing the assay, brine shrimp eggs were hatched in sea water (made by dissolving INSTANT OCEAN dry concentrate in water according to manufacturer's directions). A volume of the organic extract of Lyngbya majuscula was placed in a 50-mL conical flask (weighed beforehand to obtain the tare weight) and the solvent was evaporated. The flask was re-weighed and the tare weight subtracted to yield the weight of non-volatile residue from the extract. The residue was dissolved with a suitable volume of ethanol to yield a concentration of 0.1 mg residue per μL ethanol. Four vials were prepared, the first containing 50 μL of the ethanol solution, the second containing 10 μL of the ethanol solution plus 40 μL ethanol, the third containing 2.5 μL of the ethanol solution plus 47.5 μL ethanol, and the fourth containing none of the solution and 50 μL ethanol (serving as a negative control). Between 10 and 15 live brine shrimp were placed in each vial and stored for 24 hours, after which the number of live and dead shrimp were tallied for each vial. […]

proliferating cells = test: administration of formulations containing Curacins A and B to mice (data not shown); type: in vivo; conditions: various direct methods and oral
Text: In addition, these tests indicate that Curacins A and B can be administered to animal subjects using dosage protocols that are substantially similar to such protocols used with other antimitotics.

MRC-5 cells; AB1 cells = test: activity of second-stage fractions and of the separated isomers (FIG. 1; test not stated); type: cell-based; conditions: Curacin A vs Curacin B
Procedure: Elution in the second stage was performed within a much smaller range of increasingly greater amounts of ethyl acetate in hexane (1 to 5% in 0.5 to 1.0% increments). […] Fractions 5-9 were pooled and, as such, represented about 200 mg total.
Since the Curacin A and Curacin B compounds were […] to CH2 N2, methylation offered a way to purify the compound from the contaminants in the extract. After reaction of the extract with CH2 N2, the extract was subjected to high performance liquid chromatography (HPLC) in an effort to separate the two isomers. […]
Evaluation of the antiproliferative activity of fractions using MRC-5 cells in culture was performed using the following procedure: Human embryonic lung (MRC-5) cells were obtained from the American Type Culture Collection. […] As in the AB1 cell assay, cell growth and survival was determined calorimetrically, based upon the uptake and reduction of the tetrazolium salt, MTT, to a blue-colored formazan product by mitochondrial enzymes of living cells. The effect of the fractions, as potential inhibitors at different stages of the cell cycle, was determined by performing the assay using both resting and rapidly dividing cells. […]

Row | SMILES | activity against proliferating versus quiescent cells (MRC-5 cells) | mode of action indicated by COMPARE analysis ([1]; COMPARE data, Tables 1 and 2) | cytotoxicity [1] | antiproliferative activity against living cells in culture ([1]; living cells in culture) | antimitotic activity ([1]; various tests) | effect against spleen lymphocytes (spleen lymphocytes) | effectiveness for reducing a population of representative arthropods (brine shrimp) (brine shrimp) | bioavailability (proliferating cells) | effectiveness in vivo against proliferating cells (proliferating cells) | activity of Curacin A relative to Curacin B (times more active) (MRC-5 cells; AB1 cells)
1 | C=CC[C@@H](CC/C(C)=C/C=C/CC/C=C\[C@@H]1CSC([C@@H]2C[C@@H]2C)=N1)OC [Curacin A] | more active against proliferating cells than against quiescent cells | functions as an antimitotic | cytotoxic | substantial antiproliferative activity | substantial antimitotic activity | substantial effect against spleen lymphocytes | effectiveness | bioavailable | effective in vivo against proliferating cells | about 10^2
2 | C=CC[C@@H](CC/C(C)=C/C=C\CC/C=C\[C@@H]1CSC([C@@H]2C[C@@H]2C)=N1)OC [Curacin B] | more active against proliferating cells than against quiescent cells | – | cytotoxic | – | – | substantial effect against spleen lymphocytes | – | bioavailable | effective in vivo against proliferating cells | –
